Test results as given in patent US9115133B2, “Substituted fused tricyclic compounds, compositions and medicinal applications thereof” (Advinus Therapeutics Limited, priority 2011, dated 2015).

Experiments:
Format in all cases: biochemical
Conditions in all cases: 200 μg/ml Poly Glu-Tyr (4:1), ATP 1 uM, 90 min room temperature, luminescence
[1] = target: T1, Recombinant JAK3 (Amino acids 781-1124) (Homo sapiens, UniProt P52333); test: Kinase-Glo Luminescent Kinase Assay, recombinant JAK3
T1 construct: JAK3 (Amino acids 781-1124; NM_000215.3); made in house; host or cells: baculovirus expression system (Bac-to-Bac)
Text: (§1) Recombinant JAK1 (Amino acids 850-1154; NM_002227.2), JAK2 (Amino acids 808-1132; NM_004972.3) and JAK3 (Amino acids 781-1124; NM_000215.3) used in the studies were expressed using Invitrogen's Bac-to-Bac baculovirus expression system according to manufacturer's instructions. Adenosine 5′-triphosphate was obtained from Sigma Aldrich chemicals (Cat # A7699). Poly Glu-Tyr (4:1) sodium salt was obtained from Sigma Aldrich (Cat # P0275), Kinase Glo® Luminescent Kinase assay kit was obtained from Promega (Cat # V6713) Kinase activity was assessed by Promega Kinase-Glo® Luminescent Kinase Assay kit using 200 μg/ml Poly Glu-Tyr (4:1) as substrate and ATP at 1 uM concentration. The reactions were carried out in 384 well plates in total reaction volume of 20 uL. Reaction mixtures contained 50 mM HEPES pH 7.4, 5 mM MgCl2, 1 mM DTT, 0.01% BSA, 0.01% Tween 20. Kinase was pre-incubated with compounds or 1% DMSO for 5 min before addition of substrate and ATP to check for inhibition. Kinase reactions were carried out at room temperature for 90 min. The reactions were stopped by adding 5 μl of Kinase Glo® reagent & 10 μl of reaction mixture followed by measuring luminescence. The luminescent signal is correlated with the amount of ATP present at the end of kinase reaction and is inversely correlated with the amount of kinase activity. For each data point, % inhibition is calculated based on uninhibited reaction (without compound) which is considered as 100% activity over no enzyme or substrate controls. Dose response data is then fit using a four parameter logistic equation using Graph-pad Prism 5 software to determine inhibition constant 50 (IC50).

[2] = target: T2, Recombinant JAK2 (Amino acids 808-1132) (Homo sapiens, UniProt O60674); test: Kinase-Glo Luminescent Kinase Assay, recombinant JAK2
T2 construct: JAK2 (Amino acids 808-1132; NM_004972.3); made in house; host or cells: baculovirus expression system (Bac-to-Bac)
Text: as §1

[3] = target: T3, Recombinant JAK1 (Amino acids 850-1154) (Homo sapiens, UniProt P23458); test: Kinase-Glo Luminescent Kinase Assay, recombinant JAK1
T3 construct: Recombinant JAK1 (Amino acids 850-1154; NM_002227.2); made in house; host or cells: baculovirus expression system (Bac-to-Bac)
Text: as §1

T2 sequence (O60674 808-1132): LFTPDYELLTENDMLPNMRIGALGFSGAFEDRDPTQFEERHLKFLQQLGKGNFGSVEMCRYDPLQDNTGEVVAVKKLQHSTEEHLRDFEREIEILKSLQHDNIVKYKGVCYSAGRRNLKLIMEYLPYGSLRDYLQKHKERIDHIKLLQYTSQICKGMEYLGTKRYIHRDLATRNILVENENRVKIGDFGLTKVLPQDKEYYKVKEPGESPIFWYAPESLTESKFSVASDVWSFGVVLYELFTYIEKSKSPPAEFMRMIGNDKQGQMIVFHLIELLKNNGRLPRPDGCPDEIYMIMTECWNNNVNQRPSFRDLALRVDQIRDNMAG
T3 sequence (P23458 850-1154): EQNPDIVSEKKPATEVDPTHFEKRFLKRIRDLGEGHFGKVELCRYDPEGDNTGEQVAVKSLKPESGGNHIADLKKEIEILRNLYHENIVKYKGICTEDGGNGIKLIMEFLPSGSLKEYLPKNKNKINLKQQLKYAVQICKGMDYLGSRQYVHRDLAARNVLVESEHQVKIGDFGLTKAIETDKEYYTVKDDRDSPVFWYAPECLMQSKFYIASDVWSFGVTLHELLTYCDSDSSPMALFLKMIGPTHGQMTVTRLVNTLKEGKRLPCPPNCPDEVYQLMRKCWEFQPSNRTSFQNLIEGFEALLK
T1 sequence (P52333 781-1124): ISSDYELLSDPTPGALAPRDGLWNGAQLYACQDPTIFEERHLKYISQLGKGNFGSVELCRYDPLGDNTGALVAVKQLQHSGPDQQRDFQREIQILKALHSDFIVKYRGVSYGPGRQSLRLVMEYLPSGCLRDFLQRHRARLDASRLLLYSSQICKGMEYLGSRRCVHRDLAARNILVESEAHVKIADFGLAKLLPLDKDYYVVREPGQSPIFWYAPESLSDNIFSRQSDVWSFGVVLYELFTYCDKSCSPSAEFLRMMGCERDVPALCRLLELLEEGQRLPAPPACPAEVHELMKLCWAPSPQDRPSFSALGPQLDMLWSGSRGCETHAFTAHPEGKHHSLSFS

SMILES	IC50 [1]	IC50 [2]	IC50 [3]
CC(C)(C)OC(=O)N1CCCC(c2ncnc3cnc4[nH]ccc4c23)C1 (centres unmarked) [Comp. 55, 3-(3H-3,4,6,8-Tetraaza-cyclopenta[a]naphthalen-9-yl)-piperidine-1-carboxylic acid tert-butyl ester]	> 0.02 µM	> 0.02 µM	0.001 to 0.02 µM
N#CCC(=O)N1CCCC(c2ccnc3cnc4[nH]ccc4c23)C1 (centres unmarked) [Ex. 1, 3-oxo-3-[3-(3H-pyrrolo[3,2-f][1,7]naphthyridin-9-yl)-1-piperidyl]propanenitrile]	0.001 to 0.02 µM	0.001 to 0.02 µM	0.001 to 0.02 µM
N#CCC(=O)N1CCC[C@H](c2ccnc3cnc4[nH]ccc4c23)C1 [Ex. 1A, (R)3-oxo-3-[3-(3H-pyrrolo[3,2-f][1,7]naphthyridin-9-yl)-1-piperidyl]propanenitrile]	> 0.02 µM	> 0.02 µM	> 0.02 µM
N#CCC(=O)N1CCC[C@@H](c2ccnc3cnc4[nH]ccc4c23)C1 [Ex. 1B, (S)3-oxo-3-[3-(3H-pyrrolo[3,2-f][1,7]naphthyridin-9-yl)-1-piperidyl]propanenitrile]	< 0.001 µM	0.001 to 0.02 µM	0.001 to 0.02 µM
O=C(CC(F)(F)F)N1CCC[C@H](c2ccnc3cnc4[nH]ccc4c23)C1 [Ex. 4A, (R)3,3,3-trifluoro-1-[3-(3H-pyrrolo[3,2-f][1,7]naphthyridin-9-yl)-1-piperidyl]propan-1-one]	0.001 to 0.02 µM	0.001 to 0.02 µM	0.001 to 0.02 µM
CCS(=O)(=O)N1CCCC(c2ccnc3cnc4[nH]ccc4c23)C1 (centres unmarked) [Ex. 9, 9-(1-ethylsulfonyl-3-piperidyl)-3H-pyrrolo[3,2-f][1,7]naphthyridine]	0.001 to 0.02 µM	0.001 to 0.02 µM	0.001 to 0.02 µM
CS(=O)(=O)N1CCCC(c2ccnc3cnc4[nH]ccc4c23)C1 (centres unmarked) [Ex. 10, 9-(1-methylsulfonyl-3-piperidyl)-3H-pyrrolo[3,2-f][1,7]naphthyridine]	0.001 to 0.02 µM	0.001 to 0.02 µM	0.001 to 0.02 µM
CS(=O)(=O)N1CCC[C@@H](c2ccnc3cnc4[nH]ccc4c23)C1 [Ex. 10B, (S)9-(1-methylsulfonyl-3-piperidyl)-3H-pyrrolo[3,2-f][1,7]naphthyridine]	0.001 to 0.02 µM	0.001 to 0.02 µM	0.001 to 0.02 µM
CC(C)S(=O)(=O)N1CCCC(c2ccnc3cnc4[nH]ccc4c23)C1 (centres unmarked) [Ex. 11, 9-(1-isopropylsulfonyl-3-piperidyl)-3H-pyrrolo[3,2-][1,7]naphthyridine]	> 0.02 µM	> 0.02 µM	> 0.02 µM
CS(=O)(=O)CC(=O)N1CCCC(c2ccnc3cnc4[nH]ccc4c23)C1 (centres unmarked) [Ex. 12, 2-methylsulfonyl-1-[3-(3H-pyrrolo[3,2-f][1,7]naphthyridin-9-yl)-1-piperidyl]ethanone]	> 0.02 µM	0.001 to 0.02 µM	0.001 to 0.02 µM
CC(C)NC(=O)N1CCCC(c2ccnc3cnc4[nH]ccc4c23)C1 (centres unmarked) [Ex. 13, N-isopropyl-3-(3H-pyrrolo[3,2-f][1,7]naphthyridin-9-yl)piperidine-1-carboxamide]	> 0.02 µM	> 0.02 µM	> 0.02 µM
N#CCC(=O)N1CCC(c2ccnc3cnc4[nH]ccc4c23)C1 (centres unmarked) [Ex. 14, 3-oxo-3-[3-(3H-pyrrolo[3,2-f][1,7]naphthyridin-9-yl)pyrrolidin-1-yl]propanenitrile]	> 0.02 µM	0.001 to 0.02 µM	0.001 to 0.02 µM
N#CCC(=O)N1CC[C@H](c2ccnc3cnc4[nH]ccc4c23)C1 [Ex. 14A, (R)3-oxo-3-[3-(3H-pyrrolo[3,2-f][1,7]naphthyridin-9-yl)pyrrolidin-1-yl]propanenitrile]	> 0.02 µM	> 0.02 µM	> 0.02 µM
N#CCC(=O)N1CC[C@@H](c2ccnc3cnc4[nH]ccc4c23)C1 [Ex. 14B, (S)3-oxo-3-[3-(3H-pyrrolo[3,2-f][1,7]naphthyridin-9-yl)pyrrolidin-1-yl]propanenitrile]	> 0.02 µM	0.001 to 0.02 µM	0.001 to 0.02 µM
O=C(CC(F)(F)F)N1CCC(c2ccnc3cnc4[nH]ccc4c23)C1 (centres unmarked) [Ex. 15, 3,3,3-trifluoro-1-[3-(3H-pyrrolo[3,2-f][1,7]naphthyridin-9-yl)pyrrolidin-1-yl]propan-1-one]	> 0.02 µM	0.001 to 0.02 µM	0.001 to 0.02 µM
O=C(CC(F)(F)F)N1CC[C@H](c2ccnc3cnc4[nH]ccc4c23)C1 [Ex. 15A, (R)3,3,3-trifluoro-1-[3-(3H-pyrrolo[3,2-f][1,7]naphthyridin-9-yl)pyrrolidin-1-yl]propan-1-one]	> 0.02 µM	> 0.02 µM	> 0.02 µM
N#CCS(=O)(=O)N1CCC(c2ccnc3cnc4[nH]ccc4c23)C1 (centres unmarked) [Ex. 16, 2-[3-(3H-pyrrolo[3,2-f][1,7]naphthyridin-9-yl)pyrrolidin-1-yl]sulfonylacetonitrile]	> 0.02 µM	0.001 to 0.02 µM	0.001 to 0.02 µM
O=S(=O)(N1CCC(c2ccnc3cnc4[nH]ccc4c23)C1)C(F)(F)F (centres unmarked) [Ex. 17, 9-[1-(trifluoromethylsujlfonyl)pyrrolidin-3-yl]-3H-pyrrolo[3,2-f][1,7]naphthyridine]	> 0.02 µM	0.001 to 0.02 µM	> 0.02 µM
CC(C)CS(=O)(=O)N1CCC(c2ccnc3cnc4[nH]ccc4c23)C1 (centres unmarked) [Ex. 18, 9-(1-isobutylsulfonylpyrrolidin-3-yl)-3H-pyrrolo[3,2-f][1,7]naphthyridine]	> 0.02 µM	0.001 to 0.02 µM	0.001 to 0.02 µM
CCS(=O)(=O)N1CCC(c2ccnc3cnc4[nH]ccc4c23)C1 (centres unmarked) [Ex. 19, 9-(1-ethylsulfonylpyrrolidin-3-yl)-3H-pyrrolo[3,2-f][1,7]naphthyridine]	> 0.02 µM	0.001 to 0.02 µM	0.001 to 0.02 µM
CS(=O)(=O)N1CCC(c2ccnc3cnc4[nH]ccc4c23)C1 (centres unmarked) [Ex. 20, 9-(1-methylsulfonylpyrrolidin-3-yl)-3H-pyrrolo[3,2-f][1,7]naphthyridine]	> 0.02 µM	0.001 to 0.02 µM	0.001 to 0.02 µM
CC(C)CC(=O)N1CCCC(c2ncnc3cnc4[nH]ccc4c23)C1 (centres unmarked) [Ex. 21, 3-Methyl-1-[3-(3H-3,4,6,8-tetraazacyclopenta[a]naphthalen-9-yl)-piperidin-1-yl]-butan-1-one]	> 0.02 µM	> 0.02 µM	> 0.02 µM
CC(C)C(=O)N1CCCC(c2ncnc3cnc4[nH]ccc4c23)C1 (centres unmarked) [Ex. 22, 2-Methyl-1-[3-(3H-3,4,6,8-tetraazacyclopenta[a]naphthalen-9-yl)-piperidin-1-yl]-propan-1-one]	> 0.02 µM	> 0.02 µM	> 0.02 µM
O=C(NC1CC1)C1CCCN(c2ccnc3cnc4[nH]ccc4c23)C1 (centres unmarked) [Ex. 61, N-cyclopropyl-1-(3H-pyrrolo[3,2-f][1,7]naphthyridin-9-yl)piperidine-3-carboxamide]	> 0.02 µM	> 0.02 µM	–
O=C(NC1CC1)[C@H]1CCCN(c2ccnc3cnc4[nH]ccc4c23)C1 [Ex. 61A, (3S)-N-cyclopropyl-1-(3H-pyrrolo[3,2-f][1,7]naphthyridin-9-yl)piperidine-3-carboxamide]	> 0.02 µM	> 0.02 µM	–
CN(CC1CC1)C1CCN(c2ccnc3cnc4[nH]ccc4c23)C1 (centres unmarked) [Ex. 62, N-(cyclopropylmethyl)-N-methyl-1-(3H-pyrrolo[3,2-f][1,7]naphthyridin-9-yl)pyrrolidin-3-amine]	> 0.02 µM	> 0.02 µM	–
O=S(=O)(CC(F)(F)F)NC1CCCN(c2ccnc3cnc4[nH]ccc4c23)C1 (centres unmarked) [Ex. 86, 2,2,2-trifluoro-N-[1-(3H-pyrrolo[3,2-f][1,7]naphthyridin-9-yl)-3-piperidyl] ethanesulfonamide]	0.001 to 0.02 µM	0.001 to 0.02 µM	–
O=S(=O)(CC(F)(F)F)NC1CCN(c2ccnc3cnc4[nH]ccc4c23)C1 (centres unmarked) [Ex. 90, 2,2,2-trifluoro-N-[1-(3H-pyrrolo[3,2-f][1,7]naphthyridin-9-yl)pyrrolidin-3-yl] ethanesulfonamide]	0.001 to 0.02 µM	0.001 to 0.02 µM	–
O=S(=O)(NC1CCN(c2ccnc3cnc4[nH]ccc4c23)C1)C1CC1 (centres unmarked) [Ex. 91, N-[1-(3H-pyrrolo[3,2-f][1,7]naphthyridin-9-yl)pyrrolidin-3-yl]cyclopropanesulfon-amide]	> 0.02 µM	0.001 to 0.02 µM	–
CC(C)S(=O)(=O)NC1CCN(c2ccnc3cnc4[nH]ccc4c23)C1 (centres unmarked) [Ex. 92, N-[1-(3H-pyrrolo[3,2-f][1,7]naphthyridin-9-yl)pyrrolidin-3-yl]propane-2-sulfonamide]	> 0.02 µM	0.001 to 0.02 µM	–
